pIC50: −log10 of the molar value. Some results are limits rather than exact numbers.

As usually defined, the pIC50 is the IC50 on a negative log10 scale, so that one unit is a factor of ten.

For assay [1], the target named is T1, human melatonin ML1a receptor (Homo sapiens, UniProt P48039).
T1 construct: expressed in transfected cells; membrane homogenates
Briefly: Melatonergic receptor binding activity (2-[125I]-iodomelatonin binding, membranes of NIH-3T3 cells expressing ML1a). The conditions noted are these: 37° C. for 1 hour, read-out: Melatonin Binding Affinity (IC50). Here is the method:
Melatonergic Receptor Binding Activity
(a) TME=50 mM Tris buffer containing 12.5 mM MgCl2, and 2 mM EDTA, pH 7.4 at 37° C. with concentrated HCl.
(b) Wash buffer: 20 mM Tris base containing 2 mM MgCl2, pH 7.4 at room temperature.
(c) 10^-4 M melatonin (10^-5 M final concentration).
(d) 2-[^125 I]-iodomelatonin, 0.1 M final concentration
The melatonin ML1a receptor cDNA was subcloned into pcDNA3 and introduced into NIH-3T3 cells using Lipofectamine. Transformed NIH-3T3 cells resistant to geneticin (G-418) were isolated, and single colonies expressing high levels of 2[^125 I]-iodomelatonin binding were isolated. Cells are maintained in DMEM supplemented with 10% calf serum and G-418 (0.5 g/liter). Cells are grown to confluency in T-175 flasks, scraped using Hank's balanced salt solution, and frozen at -80° C. For preparing membrane homogenates, pellets are thawed on ice, and resuspended in TME buffer in the presence of 10 μg/ml aprotinin and leupeptin, and 100 ,μM phenylmethylsulfonylfluoride. The cells were then homogenized using a dounce homogenizer, and centrifuged. The resulting pellet was resuspended with dounce homogenizer in TME (supplemented with the above protease inhibitors) and frozen. On the day of assay, the small aliquot was thawed on ice and resuspended in ice cold TME (1:50-1:100 v/v) and held on ice until assayed.
37° C. for 1 hour. Reaction is terminated by filtration. Filters are washed 3 times.
^a = IC50 values for ML1a human melatonin receptor binding

The test system of assay [2] is circadian rhythms in rats. The conditions noted are these: cited from earlier work.

T1 sequence (P48039 whole entry): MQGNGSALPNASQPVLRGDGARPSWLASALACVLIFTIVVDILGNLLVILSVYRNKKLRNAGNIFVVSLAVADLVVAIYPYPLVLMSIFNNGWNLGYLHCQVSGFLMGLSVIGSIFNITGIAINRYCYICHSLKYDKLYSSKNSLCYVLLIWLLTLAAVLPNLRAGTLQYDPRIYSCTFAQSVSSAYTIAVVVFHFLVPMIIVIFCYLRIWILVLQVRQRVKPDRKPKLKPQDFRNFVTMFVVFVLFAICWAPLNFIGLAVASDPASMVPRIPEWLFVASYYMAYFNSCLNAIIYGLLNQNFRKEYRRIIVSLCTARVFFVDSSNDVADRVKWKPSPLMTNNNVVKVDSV

On to `CCC(=O)N[C@@H]1CCN(c2cccc3c2CCO3)C1` [Example 4, (R)-N-[N-(2,3-dihydrobenzofuran-4-yl)-pyrrolidin-3-yl]propanamide], for which, in assay [1], the negative logarithm of the IC50 (pIC50) is 6.70 to 8.00.

Consider `O=C(N[C@@H]1CCN(c2cccc3c2CCO3)C1)C1CC1` [Example 10, (R)-N-[N-(2,3-dihydrobenzofuran-4-yl)-pyrrolidin-3-yl]cyclopropane carboxamide], for which the pIC50 in assay [1] is over 8.00.

In the case of `COCC(=O)N[C@H]1CCN(c2cccc3c2CCO3)C1` [Example 11, (S)-N-[N-(2,3-dihydrobenzofuran-4-yl)-pyrrolidin-3-yl]methoxyacetamide], the negative logarithm of the IC50 (pIC50) in assay [1] is over 8.00.

As for `CCC(=O)N[C@H]1CCN(c2cccc3c2CCCO3)C1` [Example 13, (S)-N-[N-(2H-2,3-dihydrobenzopyran-5-yl)-pyrrolidin-3-yl]propanamide], the pIC50 in assay [1] is over 8.00.

On to `CC(=O)N[C@H]1CCN(c2cccc3c2OCCO3)C1` [Example 14, (S)-N-[N-(2,3-dihydro-1,4-benzodioxin-5-yl)-pyrrolidin-3-yl]acetamide], for which the pIC50 in assay [1] is 6.70 to 8.00.

As for `CCNC(=O)N[C@H]1CCN(c2cccc3c2CCO3)C1` [Example 20, (S)-N-[N-(2,3-dihydrobenzofuran-4-yl)-pyrrolidin-3-yl]-N'-ethyl urea], the pIC50 in assay [1] was over 8.00.

As to `CCNC(=O)N[C@@H]1CCN(c2cccc3c2CCO3)C1` [Example 21, (R)-N-[N-(2,3-dihydrobenzofuran-4-yl)-pyrrolidin-3-yl]-N'-ethyl urea], the pIC50 in assay [1] is over 8.00.

As for `CCNC(=O)N[C@H]1CCN(c2cccc3c2OCCO3)C1` [Example 28, (S)-N-[N-(2,3-dihydro-1,4-benzodioxin-5-yl)-pyrrolidin-3-yl]-N'-ethyl urea], the negative logarithm of the IC50 (pIC50) in assay [1] was 6.70 to 8.00.

On to `O=C(NC1CC1)N[C@@H]1CCN(c2cccc3c2CCO3)C1` [Example 30, (R)-N-[N-(2,3-Dihydrobenzofuran-4-yl)-Pyrrolidin-3-yl]-N'-Cylopropyl Urea], for which the pIC50 in assay [1] is 6.70 to 8.00.

As to `CN(C)C(=O)N[C@H]1CCN(c2cccc3c2CCO3)C1` [Example 32, (S)-N-[N-(2,3-dihydrobenzofuran-4-yl)-pyrrolidin-3-yl]-N',N'-dimethyl urea], the pIC50 in assay [1] was 6.70 to 8.00.

With `CC(=O)N[C@H]1CCN(c2c(Cl)cc(Cl)c3c2CCO3)C1` [Example 35, (S)-N-[N-(5,7-Dichloro-2,3-Dihydrobenzofuran-4-yl)-Pyrrolidin-3-yl]Acetamide], in assay [1], the pIC50 is over 8.00.

With `CCCC(=O)N[C@H]1CCN(c2c(Cl)ccc3c2CCO3)C1` [Example 36, (S)-N-[N-(5-chloro-2,3-dihydrobenzofuran-4-yl)-pyrrolidin-3-yl]butyramide], the pIC50 in assay [1] is over 8.00.

Take `COc1ccc2[nH]cc(CCNC(C)=O)c2c1` [melatonin, N-acetyl-5-methoxytryptamine]: the “effect of exogenous melatonin administration on circadian rhythms” value in assay [2] is recorded as “synchronize circadian rhythms in rats”.
